Tests used:
BJeLR cells = assay: Lipid peroxide detection using BODIPY-C11 in BJ-derived cells; type: cell-based, human
[1] = tested on: BJeH, BJeHLT, BJeLR and DRD cells; type: cell-based; conditions: 0.4 μM RSL3, BJeLR vs BJeHLT cells
BJ-derived cell lines = assay: GSH depletion assay in BJ-derived cell lines; type: cell-based, human; conditions: BJeLR cells, lethal RSL3 dose
Method: Bar graph: mean+s.d.; n=3. *, P<0.05.
2 million cells were seeded on 10 cm dishes. The next day, cells were treated with compounds to induce GSH depletion followed by harvesting to determine cell number. Two million live cells from each sample were transferred to new tubes, and centrifuged at 1,000 rpm at 4° C. for 5 minutes. The cell pellet was resuspended in 1 mL of PB buffer (10 mM sodium phosphate buffer, 1 mM EDTA, pH 7) and sonicated using 60 Joule energy. The lysate was centrifuged at 13,200 rpm at 4° C. for 10 minutes, and then the cleared lysate was used to determine the amount of GSH in the sample. The QuantiChrome glutathione assay kit (BioAssay Systems, cat # DIGT-250) was used and the product instructions were followed to determine GSH level.

GFP-ALOX5 = GFP-ALOX5 translocation in BJ-derived cell lines; type: cell-based, human
Method: A cDNA of ALOX5 (GeneBank ID: BC130332.1) was cloned into a pBabe-puro vector to express GFP fused ALOX5 (N-terminal GFP fusion) in cells. The plasmid was transfected into PLAT-GP cells (Cell Biolabs Inc., cat # RV-103, San Diego, Calif.) along with a pVSV-G helper plasmid to produce retrovirus harboring the expression plasmid. 0.2 million target cells (BJeH, BJeHLT, BJeLR or HT-1080 cells) were seeded in 10 cm tissue culture dishes and incubated in the tissue culture incubator for 1 day. A frozen stock of retrovirus solution was thawed at 37° C. for 2 minutes, and polybrene (Sigma, cat. # H9268) was added at a final concentration of 8 μg/mL. Culture medium was replaced with virus/polybrene mix and the culture dish was incubated for two hours with rocking every 30 minutes. After 2 hours, 10 mL of growth media was added to culture dish, and the culture was incubated further for 2 days. Cell lines stably expressing GFP-ALOX5 protein were selected using 1.5 μg/mL puromycin and used for the GFP-ALOX5 translocation assay.
ALOX5 is one of the six human ALOX genes and plays a critical role in leukotriene synthesis. In the basal state, the ALOX5 protein remains in the nucleus; however, upon activation, it translocates to the nuclear membrane (Chen et al., 2001). […] Second, calcium chelators were not effective in suppressing erastin-induced cell death (Wolpaw et al., 2011).

ALOX15B and ALOXE3 = assay: ALOX15B / ALOXE3 siRNA knockdown and lethal compound sensitivity in HT-1080 cells; type: cell-based, human
Method: HT-1080 cells were transfected with siRNA pools targeting either ALOX15B or ALOXE3, and then, treated with the indicated RSL compounds in 2-fold dilution series. 24 hours after compound treatment, alamar blue was added to the culture at a final concentration of 10% in growth media to determine cell viability. The percent growth inhibition was calculated from the fluorescence intensity of each well in 384-well assay plates. Data points represent mean of duplicates.
Small interfering RNA (siRNA) pools targeting ALOX15B and ALOXE3 were obtained from Dharmacon Technologies (Lafayette, Colo.). On the day of reverse-transfection, a cocktail of 1 mL of Opti-MEM (Invitrogen Corp., Carlsbad, Calif.), 6 μL of Lipofectamine RNAiMAX (Invitrogen), and 5 μL of 10 μM siRNA were prepared and transferred to each well of a 6-well plate. The 6-well plate was put in the tissue culture incubator for 20 minutes to allow the formation of transfection mixture. While the complex was forming, HT-1080 cells were trypsinized and the cell number was determined using ViCell (Trypan Blue). 200,000 cells were prepared in 1 mL of growth media with 2× serum, and then, the cell suspension was transferred to each well containing 1 mL of the transfection mix. The 6-well plate was returned to the incubator and the culture grown for 2 days. […]

COC(=O)c1ccc([C@@H]2c3[nH]c4ccccc4c3C[C@@H](C(=O)OC)N2C(=O)CCl)cc1 [RSL3]
lipid peroxide generation (BODIPY-C11 fluorescence) (BJeLR cells): generation of lipid peroxides | selective lethality [1]: exhibited selective lethality in BJeLR cells | cellular GSH level (BJ-derived cell lines): remained unaffected | GFP-ALOX5 translocation to the nuclear membrane (GFP-ALOX5): caused GFP-ALOX5 translocation to the nuclear membrane | effect of ALOX15B knockdown on compound-induced cell death (ALOX15B and ALOXE3): sensitized cells to RSL3-induced cell death | effect of ALOXE3 knockdown on compound-induced cell death (ALOX15B and ALOXE3): suppressed

From US9695133B2, “Quinazolinone-based oncogenic-RAS-selective lethal compounds and their use” (THE TRUSTEES OF COLUMBIA UNIVERSITY IN THE CITY OF NEW YORK, priority 2012, dated 2017)
